ChEMBL document CHEMBL5579880, “Rational Design of a Novel 6H-Benzo[c]chromen Series as Selective PI3Kα Inhibitors” (J Med Chem, 2024)

Experiments:
[1] = target: Phosphatidylinositol 4,5-bisphosphate 3-kinase catalytic subunit gamma isoform (Homo sapiens, UniProt P48736); assay: Inhibition of PI3Kgamma (unknown origin) incubated for 60 mins in presence of ATP by ADP-Glo reagent assay
[2] = target: Phosphatidylinositol 4,5-bisphosphate 3-kinase catalytic subunit beta isoform (Homo sapiens, UniProt P42338); assay: Inhibition of PI3Kbeta (unknown origin) incubated for 60 mins in presence of ATP by ADP-Glo reagent assay
[3] = target: T1, Phosphatidylinositol 4,5-bisphosphate 3-kinase catalytic subunit delta isoform (Homo sapiens, UniProt O00329); assay: Inhibition of PI3Kdelta (unknown origin) incubated for 60 mins in presence of ATP by ADP-Glo reagent assay relative to control
T1 sequence (O00329 whole entry): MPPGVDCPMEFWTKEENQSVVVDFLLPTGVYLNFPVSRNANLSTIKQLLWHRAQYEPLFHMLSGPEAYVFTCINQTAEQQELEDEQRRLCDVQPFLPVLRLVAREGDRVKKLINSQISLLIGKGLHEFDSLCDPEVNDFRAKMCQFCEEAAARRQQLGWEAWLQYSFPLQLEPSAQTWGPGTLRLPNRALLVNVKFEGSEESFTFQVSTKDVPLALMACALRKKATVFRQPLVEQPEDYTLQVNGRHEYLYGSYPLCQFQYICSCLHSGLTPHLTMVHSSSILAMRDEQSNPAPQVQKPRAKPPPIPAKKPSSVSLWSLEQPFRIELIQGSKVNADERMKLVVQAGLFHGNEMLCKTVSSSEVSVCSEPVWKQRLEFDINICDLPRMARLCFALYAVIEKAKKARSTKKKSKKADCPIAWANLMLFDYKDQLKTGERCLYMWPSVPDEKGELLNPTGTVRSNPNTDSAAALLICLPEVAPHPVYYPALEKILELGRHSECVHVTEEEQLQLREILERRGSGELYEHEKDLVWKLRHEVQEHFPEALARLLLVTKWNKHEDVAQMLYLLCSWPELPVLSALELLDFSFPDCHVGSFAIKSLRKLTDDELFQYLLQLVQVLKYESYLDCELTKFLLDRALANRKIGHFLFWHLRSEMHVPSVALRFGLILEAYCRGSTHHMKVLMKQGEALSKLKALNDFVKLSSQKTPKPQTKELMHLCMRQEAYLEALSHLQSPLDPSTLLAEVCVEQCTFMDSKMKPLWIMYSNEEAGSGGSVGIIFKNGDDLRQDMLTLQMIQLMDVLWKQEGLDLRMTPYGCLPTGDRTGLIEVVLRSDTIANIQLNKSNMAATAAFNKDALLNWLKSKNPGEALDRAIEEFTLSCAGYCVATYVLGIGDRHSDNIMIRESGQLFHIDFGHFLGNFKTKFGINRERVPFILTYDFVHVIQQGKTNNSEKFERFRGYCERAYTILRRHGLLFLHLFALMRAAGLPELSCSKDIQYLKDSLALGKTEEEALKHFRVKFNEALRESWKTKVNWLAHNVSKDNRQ

MCF7 [4] = assay: cells; conditions: Homo sapiens, MCF7, 168 h
Description: Antiproliferative activity against human MCF7 cells assessed as inhibition of cell growth incubated for 7 days by CCK8 assay

T47D = assay: cells; conditions: Homo sapiens, 168 h
Description: Antiproliferative activity against human T47D cells assessed as inhibition of cell growth incubated for 7 days by CCK8 assay

MCF7 [5] = assay: Induction of apoptosis in human MCF7 cells assessed as necrotic cells at 10 uM incubated for 24 hrs by Annexin V-PE/7-AAD staining based flow cytometric analysis (Rvb= 0.4 %); format: functional
MCF7 [6] = assay: Induction of apoptosis in human MCF7 cells assessed as early apoptotic cells at 10 uM incubated for 24 hrs by Annexin V-PE/7-AAD staining based flow cytometric analysis (Rvb= 1.3 %); format: functional
MCF7 [7] = assay: cells; conditions: Homo sapiens, MCF7, 24 h, read-out: Activity
MCF7 [8] = assay: Induction of apoptosis in human MCF7 cells assessed as early apoptotic cells at […] incubated for 24 hrs by Annexin V-PE/7-AAD staining based flow cytometric analysis (Rvb= 1.3 %); format: functional; conditions: dose 1.1 µM
MCF7 [9] = assay: Induction of apoptosis in human MCF7 cells assessed as late apoptotic cells at 3.3 uM incubated for 24 hrs by Annexin V-PE/7-AAD staining based flow cytometric analysis (Rvb= […]); format: functional
MCF7 [10] = assay: Induction of apoptosis in human MCF7 cells assessed as late apoptotic cells at […] incubated for 24 hrs by Annexin V-PE/7-AAD staining based flow cytometric analysis (Rvb= […]); format: functional; conditions: dose 1.1 µM
MCF7 [11] = assay: Induction of apoptosis in human MCF7 cells assessed as early apoptotic cells at 3.3 uM incubated for 24 hrs by Annexin V-PE/7-AAD staining based flow cytometric analysis (Rvb= 1.3 %); format: functional
MCF7 [12] = assay: Induction of apoptosis in human MCF7 cells assessed as late apoptotic cells at 10 uM incubated for 24 hrs by Annexin V-PE/7-AAD staining based flow cytometric analysis (Rvb= […]); format: functional
MCF7 [13] = assay: Induction of apoptosis in human MCF7 cells assessed as necrotic cells at 3.3 uM incubated for 24 hrs by Annexin V-PE/7-AAD staining based flow cytometric analysis (Rvb= 0.4 %); format: functional
MCF7 [14] = assay: cells; conditions: Homo sapiens, MCF7, 24 h, read-out: Activity; remark: listed apart in the source
MCF7 [15] = assay: Antitumor activity against human MCF7 cells xenografted in NCG mouse assessed as inhibition of tumor growth at 12.5 mg/kg,po administrated daily for 21 days relative to control; format: functional; conditions: MCF7, 504 h, time 21 day, read-out: TGI
MCF7 [16] = assay: Induction of apoptosis in human MCF7 cells assessed as necrotic cells at […] incubated for 24 hrs by Annexin V-PE/7-AAD staining based flow cytometric analysis (Rvb= 0.4 %); format: functional; conditions: dose 1.1 µM
MCF7 [17] = assay: cells; conditions: Homo sapiens, MCF7, 24 h, read-out: Activity; remark: listed apart in the source

Chain of Phosphatidylinositol 4,5-bisphosphate 3-kinase catalytic subunit gamma isoform (P48736 whole entry, canonical isoform): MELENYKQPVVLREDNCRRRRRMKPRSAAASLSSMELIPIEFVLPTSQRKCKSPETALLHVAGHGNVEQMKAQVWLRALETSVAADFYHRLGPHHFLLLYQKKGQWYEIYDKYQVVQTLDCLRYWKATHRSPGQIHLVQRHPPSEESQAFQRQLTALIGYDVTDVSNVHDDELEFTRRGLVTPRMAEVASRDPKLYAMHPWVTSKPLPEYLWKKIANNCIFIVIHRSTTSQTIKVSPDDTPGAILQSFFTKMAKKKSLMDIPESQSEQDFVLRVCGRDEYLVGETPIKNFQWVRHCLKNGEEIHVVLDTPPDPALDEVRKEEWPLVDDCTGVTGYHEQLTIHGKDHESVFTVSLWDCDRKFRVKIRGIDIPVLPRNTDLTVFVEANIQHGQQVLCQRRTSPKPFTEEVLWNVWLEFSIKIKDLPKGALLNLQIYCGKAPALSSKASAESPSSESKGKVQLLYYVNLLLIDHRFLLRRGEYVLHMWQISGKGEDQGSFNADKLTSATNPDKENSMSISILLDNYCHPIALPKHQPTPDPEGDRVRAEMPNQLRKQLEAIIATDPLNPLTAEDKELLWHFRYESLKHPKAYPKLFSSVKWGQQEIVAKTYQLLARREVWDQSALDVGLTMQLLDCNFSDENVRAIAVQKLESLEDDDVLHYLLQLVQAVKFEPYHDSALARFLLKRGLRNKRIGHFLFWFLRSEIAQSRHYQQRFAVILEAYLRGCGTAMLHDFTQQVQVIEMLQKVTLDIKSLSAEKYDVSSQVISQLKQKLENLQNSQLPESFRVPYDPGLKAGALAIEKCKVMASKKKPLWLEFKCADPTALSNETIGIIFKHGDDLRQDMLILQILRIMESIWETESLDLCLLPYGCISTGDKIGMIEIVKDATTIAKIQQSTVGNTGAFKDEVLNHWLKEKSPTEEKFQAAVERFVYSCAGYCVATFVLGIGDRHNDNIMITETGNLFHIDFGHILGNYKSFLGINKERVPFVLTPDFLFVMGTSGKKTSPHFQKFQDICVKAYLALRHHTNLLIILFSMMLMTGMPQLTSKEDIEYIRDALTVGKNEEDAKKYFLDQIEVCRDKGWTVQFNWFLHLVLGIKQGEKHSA
Chain of Phosphatidylinositol 4,5-bisphosphate 3-kinase catalytic subunit beta isoform (P42338 whole entry, canonical isoform): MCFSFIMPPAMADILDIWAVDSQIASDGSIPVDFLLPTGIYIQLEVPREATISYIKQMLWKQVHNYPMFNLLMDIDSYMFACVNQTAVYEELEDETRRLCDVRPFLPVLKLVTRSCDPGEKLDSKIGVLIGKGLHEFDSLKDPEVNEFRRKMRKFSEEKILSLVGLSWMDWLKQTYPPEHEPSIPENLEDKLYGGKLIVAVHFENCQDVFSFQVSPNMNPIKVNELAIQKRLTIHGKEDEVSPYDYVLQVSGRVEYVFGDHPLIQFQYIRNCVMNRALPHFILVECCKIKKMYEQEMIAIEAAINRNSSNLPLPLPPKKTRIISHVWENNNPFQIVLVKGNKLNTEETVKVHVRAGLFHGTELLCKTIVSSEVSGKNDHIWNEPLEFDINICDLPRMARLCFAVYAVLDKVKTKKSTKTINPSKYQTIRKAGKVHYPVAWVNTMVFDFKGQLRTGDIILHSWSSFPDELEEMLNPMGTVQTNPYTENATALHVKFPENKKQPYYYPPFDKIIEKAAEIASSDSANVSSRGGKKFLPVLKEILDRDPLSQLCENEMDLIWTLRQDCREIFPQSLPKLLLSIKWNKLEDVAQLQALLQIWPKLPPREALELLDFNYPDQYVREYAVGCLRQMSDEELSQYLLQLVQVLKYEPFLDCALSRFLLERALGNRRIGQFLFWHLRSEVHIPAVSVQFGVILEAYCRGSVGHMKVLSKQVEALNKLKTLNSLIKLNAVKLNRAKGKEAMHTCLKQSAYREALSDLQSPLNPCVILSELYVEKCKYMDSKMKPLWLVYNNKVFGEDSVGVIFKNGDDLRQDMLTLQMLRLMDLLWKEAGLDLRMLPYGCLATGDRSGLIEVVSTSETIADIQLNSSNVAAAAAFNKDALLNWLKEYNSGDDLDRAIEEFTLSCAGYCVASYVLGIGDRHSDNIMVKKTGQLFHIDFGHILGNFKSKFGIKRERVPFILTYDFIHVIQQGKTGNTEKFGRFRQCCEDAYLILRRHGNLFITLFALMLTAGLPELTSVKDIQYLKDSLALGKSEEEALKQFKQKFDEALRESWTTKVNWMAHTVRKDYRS

IC50 [1] | IC50 [2] | IC50 [3] | IC50 (MCF7 [4]) | IC50 (T47D) | SMILES | other results
 |  |  | 21.9 µM | 24.9 µM | CC(C)n1nccc1-c1ccc2c(c1)-c1ccc(O[C@@H](C)C(N)=O)cc1OC2 | 
 |  |  | 13.9 µM | 8.1 µM | C[C@H](Oc1ccc2c(c1)OCc1ccc(-c3ccccn3)cc1-2)C(N)=O | 
 |  |  | 17.2 µM | 11.5 µM | C[C@H](Oc1ccc2c(c1)OCc1ccc(-c3ccn(C)n3)cc1-2)C(N)=O | 
5.07 µM | 4.97 µM | 0.933 µM |  |  | C[C@H](Oc1ccc2c(c1)OCc1ccc(-c3ncnn3C)cc1-2)C(N)=O | 
 |  | 0.702 µM |  |  | C[C@H](Oc1ccc2c(c1)OCc1ccc(-c3ccncn3)cc1-2)C(N)=O | 
1.29 µM | 2.67 µM | 0.44 µM |  |  | C[C@H](Oc1ccc2c(c1)OCc1ccc(-c3cc[nH]n3)cc1-2)C(N)=O | 

The next lines start with the compound.

SMILES | IC50 [1] | IC50 [2] | IC50 [3] | IC50 (MCF7 [4]) | IC50 (T47D) | other results
C[C@H](Oc1ccc2c(c1)OCc1ccc(-c3ncccn3)cc1-2)C(N)=O | 7.09 µM | > 10 µM | 1.16 µM |  |  | 
C[C@H](Oc1ccc2c(c1)OCc1ccc(-c3ccncc3)cc1-2)C(N)=O | 0.94 µM | 3.25 µM | 0.352 µM |  |  | 
C[C@H](Oc1ccc2c(c1)OCc1ccc(-c3cccnc3)cc1-2)C(N)=O |  |  |  | 14.9 µM | 16.6 µM | 
Cc1nc(NC(=O)N2CCC[C@H]2C(N)=O)sc1-c1ccnc(C(C)(C)C(F)(F)F)c1 [ALPELISIB] |  |  |  | 0.6 µM | 0.4 µM | Activity (MCF7 [5]): 33.6%; Activity (MCF7 [6]): 2.9%; viability at 10 µM (MCF7 [7]): 48.5%; Activity (MCF7 [8]): 2.2%; Activity (MCF7 [9]): 16.1%; Activity (MCF7 [10]): 12.5%; Activity (MCF7 [11]): 3.9%; Activity (MCF7 [12]): 15%; Activity (MCF7 [13]): 16.3%; viability at 3.3 µM (MCF7 [14]): 63.7%; inhibition in vivo at 12.5 mg/kg (MCF7 [15]): 88%; Activity (MCF7 [16]): 10.3%; viability at […] (MCF7 [17]): 75%
